Results published in patent US8802661B2, “C-28 amides of modified C-3 betulinic acid derivatives as HIV maturation inhibitors” (priority 2010, dated 2014).

system: recombinant NL4-3 virus (Renilla luciferase in nef, Gag P373S); test: HIV Cell Culture Assay (luciferase reporter virus in MT-2 cells); format: cell-based; conditions: NL43
Description: MT-2 cells and 293T cells were obtained from the NIH AIDS Research and Reference Reagent Program. MT-2 cells were propagated in RPMI 1640 media supplemented with 10% heat inactivated fetal bovine serum, […]. The 293T cells were propagated in DMEM media supplemented with 10% heat inactivated fetal bovine serum (FBS), 100 units/ml penicillin G and 100 μg/ml streptomycin. The proviral DNA clone of NL4-3 was obtained from the NIH AIDS Research and Reference Reagent Program. A recombinant NL4-3 virus, in which a section of the nef gene from NL4-3 was replaced with the Renilla luciferase gene, was used as a reference virus. In addition, residue Gag P373 was converted to P373S. Briefly, the recombinant virus was prepared by transfection of the altered proviral clone of NL4-3. Transfections were performed in 293T cells using LipofectAMINE PLUS from Invitrogen (Carlsbad, Calif.), according to manufacturer's instruction. The virus was titered in MT-2 cells using luciferase enzyme activity as a marker. Luciferase was quantitated using the Dual Luciferase kit from Promega (Madison, Wis.), with modifications to the manufacturer's protocol. The diluted Passive Lysis solution was pre-mixed with the re-suspended Luciferase Assay Reagent and the re-suspended Stop & Glo Substrate (2:1:1 ratio). Fifty (50) μL of the mixture was added to each aspirated well on assay plates and luciferase activity was measured immediately on a Wallac TriLux (Perkin-Elmer). Antiviral activities of inhibitors toward the recombinant virus were quantified by measuring luciferase activity in cells infected for 4-5 days with NLRluc recombinants in the presence serial dilutions of the inhibitor. Table 1 is the key for the data in Table 2.

SMILES	EC50 [nM]
C=C(C)[C@@H]1CC[C@]2(C(=O)N[C@@H](C)C(=O)O)CC[C@]3(C)[C@H](CC[C@@H]4[C@@]5(C)CC=C(c6ccc(C(=O)O)cc6)C(C)(C)[C@@H]5CC[C@]43C)[C@@H]12 [Example 57, 4-((1R,3aS,5aR,5bR,7aR,11aS,11bR,13aR,13bR)-3a-((S)-1-carboxyethylcarbamoyl)-5a,5b,8,8,11a-pentamethyl-1-(prop-1-en-2-yl)-2,3,3a,4,5,5a,5b,6,7,7a,8,11,11a,11b,12,13,13a,13b-octadecahydro-1H-cyclopenta[a]chrysen-9-yl)benzoic acid]	700

same assay, conditions: NL43, read-out: EC50 Group

SMILES	EC50 [nM]
CC1(C)CC[C@]2(C(=O)NCCCN3CCS(=O)(=O)CC3)CC[C@]3(C)C(=CC[C@@H]4[C@@]5(C)CC=C(c6ccc(C(=O)O)cc6)C(C)(C)[C@@H]5CC[C@]43C)[C@@H]2C1 [Example B2, 4-((4aR,6aR,6bS,8aS,12aS,14aR,14bS)-8a-((3-(1,1-dioxido-4-thiomorpholinyl)propyl)carbamoyl)-4,4,6a,6b,11,11,14b-heptamethyl-1,4,4a,5,6,6a,6b,7,8,8a,9,10,11,12,12a,14,14a,14b-octadecahydro-3-picenyl)benzoic acid]	< 100
C=C(C)[C@@H]1CC[C@]2(C(=O)Nc3ncc(C)s3)CC[C@]3(C)[C@H](CC[C@@H]4[C@@]5(C)CC=C(c6ccc(C(=O)O)cc6)C(C)(C)[C@@H]5CC[C@]43C)[C@@H]12 [Example 48, 4-((1R,3aS,5aR,5bR,7aR,11aS,11bR,13aR,13bR)-5a,5b,8,8,11a-pentamethyl-3a-(5-methylthiazol-2-ylcarbamoyl)-1-(prop-1-en-2-yl)-2,3,3a,4,5,5a,5b,6,7,7a,8,11,11a,11b,12,13,13a,13b-octadecahydro-1H-cyclopenta[a]chrysen-9-yl)benzoic acid]	< 100
C=C(C)[C@@H]1CC[C@]2(C(=O)NCCOC)CC[C@]3(C)[C@H](CC[C@@H]4[C@@]5(C)CC=C(c6ccc(C(=O)O)cc6)C(C)(C)[C@@H]5CC[C@]43C)[C@@H]12 [Example 69, 4-((1R,3aS,5aR,5bR,7aR,11aS,11bR,13aR,13bR)-3a-(2-methoxyethylcarbamoyl)-5a,5b,8,8,11a-pentamethyl-1-(prop-1-en-2-yl)-2,3,3a,4,5,5a,5b,6,7,7a,8,11,11a,11b,12,13,13a,13b-octadecahydro-1H-cyclopenta[a]chrysen-9-yl)benzoic acid]	< 100
C=C(C)[C@@H]1CC[C@]2(C(=O)NCCCN3CCS(=O)(=O)CC3)CC[C@]3(C)[C@H](CC[C@@H]4[C@@]5(C)CC=C(c6ccc(C(=O)O)cc6)C(C)(C)[C@@H]5CC[C@]43C)[C@@H]12 [Example 85, 4-((1R,3aS,5aR,5bR,7aR,11aS,11bR,13aR,13bR)-3a-((3-(1,1-dioxido-4-thiomorpholinyl)propyl)carbamoyl)-1-isopropenyl-5a,5b,8,8,11a-pentamethyl-2,3,3a,4,5,5a,5b,6,7,7a,8,11,11a,11b,12,13,13a,13b-octadecahydro-1H-cyclopenta[a]chrysen-9-yl)benzoic acid]	< 100
C=C(C)[C@@H]1CC[C@]2(C(=O)NCCCN(CC)CCCC(=O)O)CC[C@]3(C)[C@H](CC[C@@H]4[C@@]5(C)CC=C(c6ccc(C(=O)O)cc6)C(C)(C)[C@@H]5CC[C@]43C)[C@@H]12 [Example 101, 4-((1R,3aS,5aR,5bR,7aR,11aS,11bR,13aR,13bR)-3a-(3-((3-carboxypropyl)(ethyl)amino)propylcarbamoyl)-5a,5b,8,8,11a-pentamethyl-1-(prop-1-en-2-yl)-2,3,3a,4,5,5a,5b,6,7,7a,8,11,11a,11b,12,13,13a,13b-octadecahydro-1H-cyclopenta[a]chrysen-9-yl)benzoic acid]	< 100
C=C(C)[C@@H]1CC[C@]2(C(=O)NCCC(=O)N3CCCC3C(=O)O)CC[C@]3(C)[C@H](CC[C@@H]4[C@@]5(C)CC=C(c6ccc(C(=O)O)cc6)C(C)(C)[C@@H]5CC[C@]43C)[C@@H]12 (stereo partly drawn) [Example 127, 1-(3-((1R,3aS,5aR,5bR,7aR,11aS,11bR,13aR,13bR)-9-(4-carboxyphenyl)-5a,5b,8,8,11a-pentamethyl-1-(prop-1-en-2-yl)-2,3,3a,4,5,5a,5b,6,7,7a,8,11,11a,11b,12,13,13a,13b-octadecahydro-1H-cyclopenta[a]chrysene-3a-carboxamido)propanoyl)pyrrolidine-2-carboxylic acid]	< 100
C=C(C)[C@@H]1CC[C@]2(C(=O)NCC(=O)O)CC[C@]3(C)[C@H](CC[C@@H]4[C@@]5(C)CC=C(c6ccc(C(=O)O)cc6)C(C)(C)[C@@H]5CC[C@]43C)[C@@H]12 [Example 62, 4-((1R,3aS,5aR,5bR,7aR,11aS,11bR,13aR,13bR)-3a-(carboxymethylcarbamoyl)-5a,5b,8,8,11a-pentamethyl-1-(prop-1-en-2-yl)-2,3,3a,4,5,5a,5b,6,7,7a,8,11,11a,11b,12,13,13a,13b-octadecahydro-1H-cyclopenta[a]chrysen-9-yl)benzoic acid]	> 100
C=C(C)[C@@H]1CC[C@]2(C(=O)NCc3ccoc3)CC[C@]3(C)[C@H](CC[C@@H]4[C@@]5(C)CC=C(c6ccc(C(=O)O)cc6)C(C)(C)[C@@H]5CC[C@]43C)[C@@H]12 [Example 126, 4-((1R,3aS,5aR,5bR,7aR,11aS,11bR,13aR,13bR)-3a-(furan-3-ylmethylcarbamoyl)-5a,5b,8,8,11a-pentamethyl-1-(prop-1-en-2-yl)-2,3,3a,4,5,5a,5b,6,7,7a,8,11,11a,11b,12,13,13a,13b-octadecahydro-1H-cyclopenta[a]chrysen-9-yl)benzoic acid]	< 100
C=C(C)[C@@H]1CC[C@]2(C(=O)NCCCN(C)C(C)=O)CC[C@]3(C)[C@H](CC[C@@H]4[C@@]5(C)CC=C(c6ccc(C(=O)O)cc6)C(C)(C)[C@@H]5CC[C@]43C)[C@@H]12 [Example 52, 4-((1R,3aS,5aR,5bR,7aR,11aS,11bR,13aR,13bR)-5a,5b,8,8,11a-pentamethyl-3a-(3-(N-methylacetamido)propylcarbamoyl)-1-(prop-1-en-2-yl)-2,3,3a,4,5,5a,5b,6,7,7a,8,11,11a,11b,12,13,13a,13b-octadecahydro-1H-cyclopenta[a]chrysen-9-yl)benzoic acid]	< 100
C=C(C)[C@@H]1CC[C@]2(C(=O)NCCNCCS(=O)(=O)O)CC[C@]3(C)[C@H](CC[C@@H]4[C@@]5(C)CC=C(c6ccc(C(=O)O)cc6)C(C)(C)[C@@H]5CC[C@]43C)[C@@H]12 [Example 92, 4-((1R,3aS,5aR,5bR,7aR,11aS,11bR,13aR,13bR)-5a,5b,8,8,11a-pentamethyl-1-(prop-1-en-2-yl)-3a-(2-(2-sulfoethylamino)ethylcarbamoyl)-2,3,3a,4,5,5a,5b,6,7,7a,8,11,11a,11b,12,13,13a,13b-octadecahydro-1H-cyclopenta[a]chrysen-9-yl)benzoic acid]	< 100
C=C(C)[C@@H]1CC[C@]2(C(=O)NCCN3CCCC3=O)CC[C@]3(C)[C@H](CC[C@@H]4[C@@]5(C)CC=C(c6ccc(C(=O)O)cc6)C(C)(C)[C@@H]5CC[C@]43C)[C@@H]12 [Example 46, 4-((1R,3aS,5aR,5bR,7aR,11aS,11bR,13aR,13bR)-5a,5b,8,8,11a-pentamethyl-3a-(2-(2-oxopyrrolidin-1-yl)ethylcarbamoyl)-1-(prop-1-en-2-yl)-2,3,3a,4,5,5a,5b,6,7,7a,8,11,11a,11b,12,13,13a,13b-octadecahydro-1H-cyclopenta[a]chrysen-9-yl)benzoic acid]	< 100
C=C(C)[C@@H]1CC[C@]2(C(=O)NCCN(CCC(=O)O)CCC(=O)O)CC[C@]3(C)[C@H](CC[C@@H]4[C@@]5(C)CC=C(c6ccc(C(=O)O)cc6)C(C)(C)[C@@H]5CC[C@]43C)[C@@H]12 [Example 90, 3,3′-(2-((1R,3aS,5aR,5bR,7aR,11aS,11bR,13aR,13bR)-9-(4-carboxyphenyl)-5a,5b,8,8,11a-pentamethyl-1-(prop-1-en-2-yl)-2,3,3a,4,5,5a,5b,6,7,7a,8,11,11a,11b,12,13,13a,13b-octadecahydro-1H-cyclopenta[a]chrysene-3a-carboxamido)ethylazanediyl)dipropanoic acid]	> 100
C=C(C)[C@@H]1CC[C@]2(C(=O)NC3(c4ccccn4)CC3)CC[C@]3(C)[C@H](CC[C@@H]4[C@@]5(C)CC=C(c6ccc(C(=O)O)cc6)C(C)(C)[C@@H]5CC[C@]43C)[C@@H]12 [Example 5, 4-((1R,3aS,5aR,5bR,7aR,11aS,11bR,13aR,13bR)-5a,5b,8,8,11a-pentamethyl-1-(prop-1-en-2-yl)-3a-(1-(pyridin-2-yl)cyclopropylcarbamoyl)-2,3,3a,4,5,5a,5b,6,7,7a,8,11,11a,11b,12,13,13a,13b-octadecahydro-1H-cyclopenta[a]chrysen-9-yl)benzoic acid]	< 100
